The test concerns the target T1, TsOYE (Thermus scotoductus, UniProt B0JDW3).
T1 construct: gene chrR; overexpressed ene reductase with FMN; construct only in supplement
The experiment in a line: anaerobic stopped-flow flavin reduction. In kind it is biochemical. As to conditions: apparent; reductive half-reaction; 50 mM MOPS pH 7.0, 5 mM CaCl2, 30 °C. The source says: anaerobic stopped-flow flavin reduction on TsOYE
Turning to `NC(=O)C1=CN([C@@H]2O[C@H](COP(=O)(O)OP(=O)(O)OC[C@H]3O[C@@H](n4cnc5c(N)ncnc54)[C@H](O)[C@@H]3O)[C@@H](O)[C@H]2O)C=CC1` [NADH], the Kd amounted to 8 ± 0.7 µM.

Regarding `NC(=O)C1=CN([C@@H]2O[C@H](COP(=O)(O)OP(=O)(O)OC[C@H]3O[C@@H](n4cnc5c(N)ncnc54)[C@H](OP(=O)(O)O)[C@@H]3O)[C@@H](O)[C@H]2O)C=CC1` [NADPH], the Kd came out at 9 ± 0.6 µM. `NC(=O)C1=CN(Cc2ccccc2)C=CC1` [compound 1, biomimetic 1]: the Kd stood at 227 ± 5 µM. As to `CCCCN1C=CCC(C(N)=O)=C1` [compound 2, biomimetic 2], the Kd amounted to 406 ± 12 µM.
